In brackets after ≈: the same amount, converted by molar mass.
Tests used:
[1] = test system: Klebsiella aerog. E.70; assay: MIC by standard microtitre method, alone and in admixture with ampicillin; assay type: cell-based; conditions: compound alone
Procedure: (§1) The MICs of ampicillin, 9-O-(N-glycyl)-2-amino- ethylclavulanic acid (GAECA) alone and in admixture against a number of bacteria were determined by a standard microtitre method. The results obtained were as follows: The MICs of ampicillin, 9-O-(N-alanyl)-2-amino- ethylclavulanic acid (AAECA) alone and in admixture against a number of bacteria were determined by a standard microtitre method.

[2] = test system: Proteus C 889; assay: as above; assay type: cell-based; conditions: compound alone
Procedure: as §1

[3] = test system: Staph. aureus Russell; assay: as above; assay type: cell-based; conditions: compound alone; for MIC: Staphylococcus aureus
Procedure: as §1

[4] = test system: E. coli JT 39; assay: as above; assay type: cell-based; conditions: Escherichia coli, JT39; compound alone
Procedure: as §1

[5] = test system: E.Col: E96 (R + strain); assay: Synergistic activity in mice infected intraperitoneally; assay type: in vivo; conditions: mice infected intraperitoneally with E.Col: E96 (R + strain); oral and sub-cutaneous route
Description: The results obtained were as follows: • Synergistic activity in Mice infected intraperitoneally with E.Col: E96 (R + strain) [formula]

Row | Structure (SMILES) | MIC [1] | MIC [2] | MIC [3] | MIC [4] | Synergistic activity in vivo [5] | MIC (µg/ml) Proteus C 889 [2] | MIC (µg/ml) Staph. aureus Russell [3]
1 | C[C@H](N)C(=O)NCCOC/C=C1\O[C@@H]2CC(=O)N2[C@H]1C(=O)O [AAECA, 9-0-(N-L-alanyl)-2-aminoethylclavulanic acid] | 125 µg/mL (≈ 399 µM) | 250 µg/mL (≈ 798 µM) | 8 µg/mL (≈ 25.5 µM) | 16 µg/mL (≈ 51.1 µM) | good activity in vivo by both the oral and sub-cutaneous route |  | 
2 | NCC(=O)NCCOC/C=C1\O[C@@H]2CC(=O)N2[C@H]1C(=O)O [GAECA, 9-0-(N-Glycyl)-2-aminoethylclavulanic acid] | 62.5 µg/mL (≈ 209 µM) | 250 µg/mL (≈ 835 µM) | 8 µg/mL (≈ 26.7 µM) | 51.2 µg/mL (≈ 171 µM) |  |  | 
3 | CC1(C)S[C@@H]2[C@H](NC(=O)[C@H](N)c3ccccc3)C(=O)N2[C@H]1C(=O)O [Ampicillin, ampicillin, reference compound] | 500 µg/mL (≈ 1430 µM) | 2000 µg/mL (≈ 5720 µM) | 250 µg/mL (≈ 715 µM) | 2000 µg/mL (≈ 5720 µM) |  | 1000 µg/mL (≈ 2860 µM) | 500 µg/mL (≈ 1430 µM)

Reference: patent EP0013790A1, “Clavulanic acid derivatives, their preparation and pharmaceutical compositions containing them” (BEECHAM GROUP PLC, priority 1978, dated 1980)
